From PubChem BioAssay (NCI)
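All cell lines were grown in 96-well plates and treated with compound for 48 hours. Here, GI50 denotes the concentration required for 50% inhibition of growth. TGI: total growth inhibition.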

Key:
Assay in all cases: NCI tumour cell line growth inhibition, 48 h
[1] = test system: SK-MEL-5 melanoma
[2] = test system: HCT-15 colon
[3] = test system: NCI-H226 lung
[4] = test system: OVCAR-5 ovarian
[5] = test system: NCI-H460 lung
[6] = test system: HOP-92 NSCLC
[7] = test system: CAKI-1 renal
[8] = test system: MCF7 breast
[9] = test system: DMS 273 small cell lung
[10] = test system: XF 498 CNS

Structure (SMILES)	GI50 [1] [µM]	TGI [1] [µM]	GI50 [2] [µM]	TGI [2] [µM]	GI50 [3] [µM]	TGI [3] [µM]	GI50 [4] [µM]	TGI [4] [µM]	GI50 [5] [µM]	TGI [5] [µM]	GI50 [6] [µM]	TGI [6] [µM]	GI50 [7] [µM]	TGI [7] [µM]	GI50 [8] [µM]	TGI [8] [µM]	TGI [9] [µM]	TGI [10] [µM]
COc1ccc(/C=C/c2c(C(=O)/C=C/c3ccc(C(F)(F)F)cc3)c(C)nc3ccccc23)cc1	1.68	3.09	1.14	4.59	1.85	4.01	2.13	5.53	1.87	4.22	1.62	3.59	1.13	2.56	1	3.4	–	–
Cc1ccc(C)c(N2C(=O)C(=O)C(c3nc4ccccc4o3)C(=O)C2=O)c1	–	> 100	–	> 100	–	> 100	–	–	–	> 100	–	> 100	–	> 100	–	–	> 100	–
O=C(O)/C(Cc1cn[nH]n1)=N\O	–	> 100	–	> 100	–	> 100	–	> 100	–	> 100	–	> 100	–	> 100	–	> 100	–	–
CN(C)CCCn1c(=O)c2ccccc2c2cnc3[nH]ccc3c21	1.77	3.51	2	9.58	0.862	2.58	2.27	14.9	0.8	2.62	1.8	8.16	1.94	4.66	2.74	11.3	–	–
S=C1Cc2c(-c3ccc(Br)cc3)cc(-c3ccccc3)nc2-c2ccccc2N1	–	23.5	–	14.6	–	8.54	–	14.4	–	2.66	–	4.41	–	3.65	–	> 100	–	–
COc1ccc(-c2cncn2-c2cc(OC)c(OC)c(OC)c2)cc1	0.0523	5.25	0.17	> 91.9	1.97	82.6	0.318	> 100	0.367	> 84.6	3.3	> 61	0.051	1.85	–	> 34.8	–	–
COc1cccc2cc(N(C)c3nc(C)nc4c3CCC4)ccc12	< 0.01	0.0161	< 0.01	6.41	12.7	32.4	< 0.01	19.6	< 0.01	12.4	< 0.0169	1.48	< 0.01	18.9	< 0.01	14.6	–	–
O=C(NNc1ccc(Cl)cc1)C1CCC(CNS(=O)(=O)c2ccccc2Cl)CC1 (stereo unspecified)	18.4	39.2	5.68	61.5	20.2	> 100	17.3	55	14.3	> 100	17.3	> 100	2.9	12.6	4.88	> 100	–	–
O=C(Nc1ccccc1I(=O)=O)C1CCCCC1	> 100	> 100	> 100	> 100	> 100	> 100	> 100	> 100	> 100	> 100	> 100	> 100	> 100	> 100	> 100	> 100	–	–
CS(=O)(=O)Nc1cccc(-c2ccc3ncnc(Nc4ccc(F)c(Cl)c4)c3c2)c1	1.64	3.19	1.47	3.86	1.8	5.33	1.89	6.66	2.15	5.6	1.72	5.25	0.447	19.2	1.56	6.93	–	–
CCN(CC)CCCC(C)Nc1cc(-c2cccc(OC(F)(F)F)c2)nc2ccc(N3CCCC3)cc12 (stereo unspecified)	0.126	0.589	0.0415	12.4	0.189	9.57	0.348	> 100	0.0377	3.66	0.582	13.4	0.0422	31.5	0.0353	22.5	–	–
O=C(O)/C(Cc1ccnc2ccccc12)=N\O	–	> 100	–	> 100	–	> 100	–	> 100	–	> 100	–	> 100	–	> 100	–	> 100	–	–
COc1ccccc1NC(=O)C1=C(C)NC(C)=C(C(=O)Nc2ccccc2OC)C1/C=C/c1ccccc1	–	> 100	–	> 100	–	> 100	–	> 100	–	> 100	–	> 100	–	> 100	–	–	> 100	–
CCCCCCCCCCCCC(O)c1ccco1 (stereo unspecified)	14.8	28.2	19.2	36	20.8	37.9	16.1	30.3	29.5	> 100	15.5	32.1	18	33.4	29.4	> 100	–	–
N#CC(C(=O)CCCC(=O)Nc1ccc(Cl)cc1Cl)c1ccccc1 (stereo unspecified)	–	> 100	–	> 100	–	> 100	–	> 100	–	> 100	–	> 100	–	> 100	–	–	> 100	–
CCOC(=O)c1cc(-c2ccc(-c3cc(C(=O)OCC)c(C#N)c(N)c3C#N)cc2)c(C#N)c(N)c1C#N	–	–	–	> 100	–	> 100	–	> 100	–	> 100	–	–	–	> 100	–	–	> 100	> 100
CCOC(=O)/C(=C/c1cccc(Cl)c1)N(CC)CC	–	> 100	–	> 100	–	> 100	–	> 100	–	> 100	–	84.2	–	> 100	–	–	–	> 100
O=C(CN(/C=C/C(=O)C(F)(F)F)c1ccc(Cl)cc1)c1ccc(Cl)c(Cl)c1	5.33	20	4.24	17.2	12.5	30.1	13.4	27.1	3.18	9.36	3.21	14.5	3.61	12.7	3.42	16.6	–	–
